Test results reported in patent US4672063A, “Antiallergic 5-alkyl-1-phenyl-2-piperazinoalkylpyrazolin-3-one compounds” (Kali-Chemie Pharma GmbH, priority 1984, dated 1987).

Legend:
[1] = Acute 8-day toxicity, single i.p. application to male mice (LD50); settings: in vivo, ip, mouse i.p., 8 days
Protocol: The acute 8-day toxicity is determined after a single application i.p. to male mice (body weight 18 to 22 g). The mortality is noted for 8 days. The results are calculated as LD50 values, i.e. the dose which kills 50% of the animals.

[2] = tested on: passive cutaneous anaphylaxis; test: Inhibition of passive cutaneous anaphylaxis (PCA) in the rat, test substance p.o.; type: in vivo, rat (Sprague-Dawley); settings: po, 50% reduction in dye concentration vs control, read-out: ED50 inhibiting effect, passive cutaneous anaphylaxy
Protocol: (§1) 2. Determining the inhibition of passive cutaneous anaphylaxis (PCA) and the inhibition of anaphylactoid cutaneous reactions induced by histamine and by serotonin.
For the preparation of an antiovalbumin serum, rich in IgE, which is used in the test, according to the method of Lehrer et al (J. Immunol. 116, (1976) 178-182) and Pauwels et al (Ann. Immunol. 230C., (1979), 49-58), Sprague-Dawley rats are sensitized by i.p. injection of 1 mg ovalbumin and 1 ml Bordetella pertussis suspension (vaxicoq, Merieux 3×10^10 organisms/ml). After 20 days the animals are given an injection of 10 mg ovalbumin in the same way, but without any additive. After a further 4 days, blood is removed from the animals and the blood is centrifuged. The antiserum thus obtained is stored at -20° C. and adjusted according to the method of Goose et al (Immunology 16 (1968) 749-760).
(§2) The determination of the inhibition of passive cutaneous anaphylaxis and the anaphylactoid cutaneous reactions induced by histamine and by serotonin, are carried out, as set forth below, according to the method of Martin and Baggiolini (Naunyn-Schmeiedeberg's Archives of Pharmacology 316 (1981) 186-189).
(§3) For passive sensitizing against ovalbumin, male Sprague-Dawley rates (body weight 150 to 165 g) are injected intradermally on a shaved part of the back with 0.05 ml of a 1:2.5 dilution of antiovalbumin serum, rich in IgE, in physiological sodium chloride solution.
(§4) 24 hours after the sensitizing, solutions of the test substances are administered orally to the rats. For comparison, a control group receives only the solvent.
(§5) Immediately thereafter 1.25 mg (-~8 mg/kg) ovalbumin to trigger the anaphylactic reaction, and 4 mg (-~26.4 mg/kg) of a blue dye dissolved in 0.5 ml phosphate-buffered physiological sodium chloride solution are administered i.v. to the animals.
(§6) After 30 minutes the animals are killed, the skin is removed and in the individual blue patches the quantity of dye contained therein is determined separately. According to the method of Mordelet-Danbrine et al (Therapie 29 (1974) 851-862) the dye is extracted from the individual patches in each case with 2.5 ml dimethylformamide at a temperature of 37° C. for 4 days and the quantity of dye obtained in each case in the extraction solution is determined by spectrophotometric measurement. The doses of the test substances which cause a 50% reduction in the dye concentration compared with the control group are calculated as ED50 values.

[3] = tested on: histamine-induced anaphylactoidal reaction; test: Inhibition of histamine-induced anaphylactoid cutaneous reaction in the rat, test substance p.o.; type: in vivo, rat (Sprague-Dawley); settings: po, 40 μg histamine intradermally, read-out: ED50 inhibiting effect, histamine-induced anaphylactoidal reaction
Protocol: as §1, §2, §3, §4
(§7) To trigger the histamine-induced and serotonin-induced anaphylactoid reactions of the skin, the animals are injected intradermally 30 minutes later on a second shaved part of the back with a solution of 40 μg histamine in 0.05 ml physiological sodium chloride solution and on a third shaved part of the back with a solution of 1 μg serotonin in 0.05 physiological sodium chloride solution.
as §5, §6

[4] = tested on: serotonin induced anaphylactoidal reaction; test: Inhibition of serotonin-induced anaphylactoid cutaneous reaction in the rat, test substance p.o.; type: in vivo, rat (Sprague-Dawley); settings: po, 1 μg serotonin intradermally, read-out: ED50 inhibiting effect, serotonin induced anaphylactoidal reaction
Protocol: as §1, §2, §3, §4, §7, §5, §6

[5] = tested on: peritonal mast cells of rats; test: In vitro inhibition of anaphylactically caused histamine release from peritonal mast cells of rats; type: cell-based, rat (Sprague-Dawley); settings: Rattus norvegicus, Mast cell; ovalbumin trigger, 1 minute preincubation at 37° C.; read-out: EC50 in vitro inhibiting effect with respect to anaphylactically caused histamine release from mast cells of the rat
Protocol: 3. Determining the inhibiting effect in vitro on the release of histamine, caused anaphylactically, from peritonal mast cells of rats.
In order to obtain the peritonal mast cells, Sprague-Dawley rats are killed by inhalation of ether and immediately after cessation of breathing has occurred, 15 ml of a cold solution of 1 mg/ml human serum albumin in phosphate-buffered sodium chloride solution are injected into the abdominal cavity. The peritonal fluid is then removed and the mast cells are separated therefrom by centrifuging and are suspended in phosphate-buffered sodium chloride solution, whereafter the suspension is adjusted to a mast cell concentration of 5×10^5 per ml.
The mast cell suspension, divided up into samples each of 100 μl, is introduced into test-tubes and each sample, for passive sensitizing, is mixed with 100 μl of a 1:10 dilution of IgE-rich antiovalbumin serum in physiological sodium chloride solution (prepared according to the method described above) and is incubated for 30 minutes at a temperature of 37° C. (water bath). For the removal of unbonded IgE, the mast cells are then washed with 2 ml phosphate-buffered sodium chloride solution, centrifuged, and the supernatant fluid is discarded. Then the mast cells are incubated for 1 minute at 37° C. with 200 μl of a solution of the test substance in phosphate-buffered sodium chloride solution. A control group is only incubated with the same quantity of phosphate-buffered sodium chloride solution which is free of test substance.
After an incubation period of 3 minutes at 37° C., the reaction is stopped by rapid cooling in an ice bath. Then centrifuging takes place, the supernatant fluid is decanted and the histamine content therein is determined directly, without further extraction, spectrofluorimetrically according to the method of Shore (J. Pharmac. Exp. Ther. 127 (1959) 182-186).
For the extraction of the residual histamine still contained in the mast cells of the undecanted material, the latter is mixed with 2 ml phosphate-buffered sodium chloride solution and the suspension is heated in a boiling water bath. Then centrifuging takes place, the supernatant fluid is decanted and therein the residual histamine extracted from the mast cells is determined spectrofluorimetrically.
For each sample, the quantity of the released histamine is calculated as percentage proportion of the overall quantity of histamine (=total of released histamine and residual histamine retained in the mast cells).
The EC50 values are calculated to be those molar concentrations of the test substances in the respective test solutions which produce a 50% inhibition of the histamine release compared to the control group.

Compound	LD50 at 192 h [1] [mg/kg]	ED50 [2] [mg/kg]	ED50 [3] [mg/kg]	ED50 [4] [mg/kg]	EC50 [5] [µM]
Cc1ccnc(N2CCN(CCCn3c(=O)cc(C)n3-c3ccc([N+](=O)[O-])cc3)CC2)c1 [Example 2, 5-methyl-1-(4-nitrophenyl)-2-{3-[4-(4-methyl-pyrid-2-yl)-piperazin-1-yl]-propyl}-pyrazolin-3-one]	90	1.9	1.75	2.7	
Cc1ccnc(N2CCN(CCCCn3c(=O)cc(C)n3-c3ccccc3)CC2)c1 [Example 4, 5-methyl-1-phenyl-2-{4-[4-(4-methyl-pyrid-2-yl)-piperazin-1-yl]-butyl}-pyrazolin-3-one]	130	3.9	7.98	5.9	
Cc1ccnc(N2CCN(CCCn3c(=O)cc(C)n3-c3ccc(O)cc3)CC2)c1 [Example 7, 5-methyl-1-(4-hydroxyphenyl)-2-{3-[4-(4-methyl-pyrid-2-yl)-piperazin-1-yl]-propyl}-pyrazolin-3-one]	178	6.6	7.9	13	
Cc1cc(=O)n(CCCN2CCN(c3ccccc3)CC2)n1-c1ccccc1 [Example 11]	108	4.65	10.1	10.2	
CCCc1cc(=O)n(CCCN2CCN(c3cc(C)ccn3)CC2)n1-c1ccccc1 [Example 13]	96	2.94	5.48	1.87	
Cc1ccnc(N2CCN(CCCn3c(=O)cc(C4CCCCC4)n3-c3ccccc3)CC2)c1 [Example 15]	90	1.9	4.4	1.7	14
COC(=O)c1ccccc1-n1c(C)cc(=O)n1CCCN1CCN(c2cc(C)ccn2)CC1 [Example 17]	342	5	12.6	10.8	
Cc1ccnc(N2CCN(CCCn3c(=O)cc(C)n3-c3ccc(Cl)cc3)CC2)c1 [Example 18]	205	4.7	6.6	6.2	230
COc1ccc(N2CCN(CCCn3c(=O)cc(C)n3-c3ccc(C)cc3Cl)CC2)cc1 [Example 20]					10
COc1ccccc1-n1c(C)cc(=O)n1CCCN1CCN(c2cc(C)ccn2)CC1 [Example 21]	252	7.1	5.1	8.3	
CCCc1cc(=O)n(CCCN2CCN(c3ccc(F)cc3)CC2)n1-c1ccc(Cl)c(Cl)c1 [Example 22]					43
CCc1cc(=O)n(CCCN2CCN(c3cc(C)ccn3)CC2)n1-c1ccc(Cl)cc1 [Example 23]	168	7.85	4.7	5.8	140
CCCCCCc1cc(=O)n(CCCN2CCN(c3cc(C)ccn3)CC2)n1-c1ccccc1 [Example 26]	72.5	6.75	6.3	7.8	35
CCOc1ccc(-n2c(C)cc(=O)n2CCCN2CCN(c3cc(Cl)ccc3C)CC2)cc1 [Example 30]					18
CCc1cc(=O)n(CCCN2CCN(c3cc(C)ccn3)CC2)n1-c1ccc([N+](=O)[O-])cc1 [Example 38]	93	3.18	3.88	5.54	
O=c1cc(C2CC2)n(-c2ccccc2)n1CCCN1CCN(c2ccc(F)cc2)CC1 [Example 43]		2.45	5.79	3.25	
CC(=O)c1ccc(-n2c(C)cc(=O)n2CCCN2CCN(c3cc(C)ccn3)CC2)cc1 [Example 44]	170	5.4	3.15	8.9	
Cc1cc(=O)n(CCCN2CCN(c3ccccn3)CC2)n1-c1ccccc1 [Example 45]	240	6.3	11	8	
Cc1ccnc(N2CCN(CCCn3c(=O)cc(C)n3-c3ccc(C#N)cc3)CC2)c1 [Example 46]	101	6.3	2.8	8	
COc1ccc(-n2c(C)cc(=O)n2CCCN2CCN(c3cc(C)ccn3)CC2)cc1 [Example 47]	190	5.96	6.8	6.8	
O=c1cc(C2CCCCC2)n(-c2ccccc2)n1CCCN1CCN(c2ccc(F)cc2)CC1 [Example 49]	96	4.9	10.6	3.59	57
Cc1ccc(-n2c(C)cc(=O)n2CCCN2CCN(c3cc(C)ccn3)CC2)cc1 [Example 55]	135	7.26	11.9	11.8	
COc1ccc(-n2c(C)cc(=O)n2CCCN2CCN(c3cc(C)ccn3)CC2)cc1OC [Example 56]	> 350	5.7	3.85	6.29	
Cc1ccnc(N2CCN(CCCn3c(=O)cc(C4CCCC4)n3-c3ccccc3)CC2)c1 [Example 58]	95	1.17	10	1.41	120
